Legend:
[1] = target: T1, p38 MAP kinase β (Homo sapiens, UniProt Q15759); experiment: Promega CMGC-1 kinase selectivity profiling system, ADP-Glo kinase assay; format: biochemical
T1 construct: gene MAPK11

[2] = target: T2, p38 MAP kinase α (Homo sapiens, UniProt Q16539); experiment: as above; format: biochemical
T2 construct: gene MAPK14
T2 sequence (Q16539 2-360): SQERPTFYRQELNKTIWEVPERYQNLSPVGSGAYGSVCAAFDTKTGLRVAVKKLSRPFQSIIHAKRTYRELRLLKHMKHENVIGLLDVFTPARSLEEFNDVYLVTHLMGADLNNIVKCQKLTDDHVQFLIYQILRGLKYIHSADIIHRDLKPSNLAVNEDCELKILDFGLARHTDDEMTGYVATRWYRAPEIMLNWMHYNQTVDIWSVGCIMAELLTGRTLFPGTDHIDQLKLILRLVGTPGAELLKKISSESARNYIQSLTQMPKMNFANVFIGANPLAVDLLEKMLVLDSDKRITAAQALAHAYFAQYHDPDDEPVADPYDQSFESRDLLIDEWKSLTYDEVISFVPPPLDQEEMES

T1 sequence (Q15759 whole entry): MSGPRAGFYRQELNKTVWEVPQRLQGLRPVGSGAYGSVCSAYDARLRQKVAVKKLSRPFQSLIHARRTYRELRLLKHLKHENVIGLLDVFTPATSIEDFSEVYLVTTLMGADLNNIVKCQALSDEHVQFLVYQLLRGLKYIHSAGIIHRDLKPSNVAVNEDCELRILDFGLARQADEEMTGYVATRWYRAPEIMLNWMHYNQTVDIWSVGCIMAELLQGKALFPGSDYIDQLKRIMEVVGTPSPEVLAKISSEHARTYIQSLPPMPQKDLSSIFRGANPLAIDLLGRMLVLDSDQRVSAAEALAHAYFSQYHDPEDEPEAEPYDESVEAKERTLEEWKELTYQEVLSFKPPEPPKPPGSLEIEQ

O=C(/C=C/c1ccc(O)c(O)c1)NCCc1c[nH]c2ccccc12 [N-caffeoyltryptamine]
IC50 [1]: 18.3 µM
IC50 [2]: 16.7 µM
